Reference: PubChem BioAssay (NCI)
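48-hour exposure; five concentrations; linearly interpolated endpoints. The concentration for 50% growth inhibition is given as GI50. TGI: total growth inhibition.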

Experiments:
Assay in all cases: NCI anticancer screen, dose series, 48 h
[1] = system: HOP-62 NSCLC
[2] = system: CCRF-CEM leukemia
[3] = system: COLO 205 colon
[4] = system: BT-549 breast
[5] = system: NCI/ADR-RES ovarian
[6] = system: MDA-MB-231 breast
[7] = system: SK-MEL-5 melanoma
[8] = system: SK-MEL-28 melanoma
[9] = system: K-562 leukemia
[10] = system: RXF 393 renal
[11] = system: HT29 colon
[12] = system: A498 renal
[13] = system: HCT-116 colon
[14] = system: TK-10 renal
[15] = system: EKVX NSCLC
[16] = system: OVCAR-5 ovarian
[17] = system: 786-0 renal
[18] = system: HS 578T breast
[19] = system: SK-MEL-2 melanoma
[20] = system: OVCAR-8 ovarian
[21] = system: HOP-92 NSCLC
[22] = system: MOLT-4 leukemia
[23] = system: NCI-H522 lung
[24] = system: KM12 colon
[25] = system: MCF7 breast
[26] = system: LOX IMVI melanoma
[27] = system: CAKI-1 renal
[28] = system: MALME-3M melanoma
[29] = system: SNB-19 CNS
[30] = system: SW-620 colon
[31] = system: SNB-75 CNS
[32] = system: UO-31 renal
[33] = system: HCT-15 colon
[34] = system: RPMI-8226 leukemia
[35] = system: OVCAR-3 ovarian
[36] = system: OVCAR-4 ovarian
[37] = system: M14 melanoma
[38] = system: SF-295 CNS
[39] = system: PC-3 prostate
[40] = system: MDA-MB-435
[41] = system: IGROV1 ovarian
[42] = system: U251 CNS
[43] = system: ACHN renal
[44] = system: SK-OV-3 ovarian
[45] = system: UACC-257 melanoma
[46] = system: HL-60(TB) leukemia
[47] = system: NCI-H460 lung
[48] = system: A549 NSCLC
[49] = system: NCI-H23 lung
[50] = system: SN12C renal
[51] = system: NCI-H226 lung
[52] = system: DU-145 prostate
[53] = system: SF-268 CNS
[54] = system: SR leukemia
[55] = system: T-47D breast
[56] = system: UACC-62 melanoma
[57] = system: SF-539 CNS
[58] = system: HCC-2998 colon

Compound `COc1cc(C(=O)NC2c3ccccc3-c3ccccc32)c(N)cc1OCc1ccccc1` has a GI50 [1] of 10.6 µM, a TGI [1] of 38.4 µM and a GI50 [2] of over 100 µM. For the same compound, the TGI [2] was over 100 µM, the GI50 [3] was 63.9 µM and the TGI [3] was over 100 µM. For the same compound, the GI50 [4] was 17 µM, the TGI [4] was 42.2 µM and the GI50 [5] was 35.3 µM. For the same compound, the TGI [5] was over 100 µM, the GI50 [6] was 17.2 µM and the TGI [6] was 47.1 µM. The GI50 [7] was 27.5 µM, the TGI [7] was over 100 µM and the GI50 [8] was 25.2 µM. It also gave a TGI [8] of over 92.7 µM, a GI50 [9] of 15.9 µM and a TGI [9] of over 100 µM. For the same compound, the GI50 [10] was 13.5 µM, the TGI [10] was 34.7 µM and the GI50 [11] was 69.7 µM. For the same compound, the TGI [11] was over 100 µM, the GI50 [12] was 37 µM and the TGI [12] was over 100 µM. The GI50 [13] was 20.3 µM, the TGI [13] was over 82.7 µM and the GI50 [14] was 26.2 µM. It also gave a TGI [14] of 69.6 µM, a GI50 [15] of 5.28 µM and a TGI [15] of 45 µM. For the same compound, the GI50 [16] was 52.5 µM, the TGI [16] was over 100 µM and the GI50 [17] was 21.4 µM. It also gave a TGI [17] of over 60.8 µM, a GI50 [18] of 14.5 µM and a TGI [18] of 79.1 µM. For the same compound, the GI50 [19] was 33.7 µM, the TGI [19] was 98.9 µM and the GI50 [20] was 24.2 µM. The TGI [20] was over 100 µM, the GI50 [21] was 14.2 µM and the TGI [21] was 33.6 µM. For the same compound, the GI50 [22] was over 78.4 µM, the TGI [22] was over 100 µM and the GI50 [23] was 34.7 µM. It also gave a TGI [23] of over 100 µM, a GI50 [24] of over 100 µM and a TGI [24] of over 100 µM. The GI50 [25] was 42.8 µM, the TGI [25] was over 100 µM and the GI50 [26] was 63.6 µM. For the same compound, the TGI [26] was over 100 µM, the GI50 [27] was 16.1 µM and the TGI [27] was 63.8 µM. The GI50 [28] was 26.6 µM, the TGI [28] was over 76.6 µM and the GI50 [29] was 22.6 µM. The TGI [29] was 58 µM, the GI50 [30] was 66.4 µM and the TGI [30] was over 100 µM. It also gave a GI50 [31] of 7.84 µM, a TGI [31] of 30.7 µM and a GI50 [32] of 30.2 µM. It also gave a TGI [32] of over 100 µM, a GI50 [33] of over 74.8 µM and a TGI [33] of over 100 µM. It also gave a GI50 [34] of 97.5 µM, a TGI [34] of over 100 µM and a GI50 [35] of 24.2 µM. The TGI [35] was over 87.3 µM, the GI50 [36] was 5.16 µM and the TGI [36] was 32.2 µM. For the same compound, the GI50 [37] was 47 µM, the TGI [37] was over 100 µM and the GI50 [38] was 15.4 µM. The TGI [38] was 41 µM, the GI50 [39] was 27.5 µM and the TGI [39] was over 66.1 µM. For the same compound, the GI50 [40] was over 100 µM, the TGI [40] was over 100 µM and the GI50 [41] was 34.3 µM. The TGI [41] was over 100 µM, the GI50 [42] was 14.4 µM and the TGI [42] was 34.7 µM. The GI50 [43] was 23 µM, the TGI [43] was over 92.3 µM and the GI50 [44] was 16.9 µM. The TGI [44] was 43.8 µM, the GI50 [45] was 58.7 µM and the TGI [45] was over 100 µM. The GI50 [46] was over 71.7 µM, the TGI [46] was over 100 µM and the GI50 [47] was 35.1 µM. It also gave a TGI [47] of over 100 µM, a GI50 [48] of 17.9 µM and a TGI [48] of over 100 µM. For the same compound, the GI50 [49] was 30.6 µM, the TGI [49] was over 100 µM and the GI50 [50] was 11.4 µM. It also gave a TGI [50] of 48.9 µM, a GI50 [51] of 11.4 µM and a TGI [51] of 44.3 µM. It also gave a GI50 [52] of 2870 nM, a TGI [52] of over 100 µM and a GI50 [53] of 16.8 µM. The TGI [53] was over 62.1 µM, the GI50 [54] was 98.6 µM and the TGI [54] was over 100 µM. It also gave a GI50 [55] of 29.5 µM, a TGI [55] of over 100 µM and a GI50 [56] of 20.1 µM. It also gave a TGI [56] of 67.5 µM, a GI50 [57] of 11.8 µM and a TGI [57] of 28.3 µM. The GI50 [58] was over 100 µM and the TGI [58] was over 100 µM.

With `C#Cc1cnc(=O)n(C2CC(O)C(CO)O2)c1` (stereo not drawn) the GI50 [1] was over 100 µM, the TGI [1] was over 100 µM and the GI50 [2] was 13.5 µM. The TGI [2] was over 32.8 µM, the GI50 [3] was over 100 µM and the TGI [3] was over 100 µM. For the same compound, the GI50 [4] was over 100 µM, the TGI [4] was over 100 µM and the GI50 [5] was over 100 µM. The TGI [5] was over 100 µM, the GI50 [6] was over 100 µM and the TGI [6] was over 100 µM. It also gave a GI50 [7] of over 100 µM, a TGI [7] of over 100 µM and a GI50 [8] of over 100 µM. The TGI [8] was over 100 µM, the GI50 [9] was over 100 µM and the TGI [9] was over 100 µM. For the same compound, the GI50 [10] was over 100 µM, the TGI [10] was over 100 µM and the GI50 [12] was over 100 µM. For the same compound, the TGI [12] was over 100 µM, the GI50 [13] was over 100 µM and the TGI [13] was over 100 µM. For the same compound, the GI50 [14] was over 100 µM, the TGI [14] was over 100 µM and the GI50 [15] was over 100 µM. The TGI [15] was over 100 µM, the GI50 [16] was over 100 µM and the TGI [16] was over 100 µM. It also gave a GI50 [17] of over 100 µM, a TGI [17] of over 100 µM and a GI50 [18] of over 100 µM. It also gave a TGI [18] of over 100 µM, a GI50 [19] of over 100 µM and a TGI [19] of over 100 µM. For the same compound, the GI50 [20] was over 100 µM, the TGI [20] was over 100 µM and the TGI [21] was over 43.2 µM. It also gave a GI50 [22] of 98.9 µM, a TGI [22] of over 100 µM and a GI50 [23] of over 100 µM. The TGI [23] was over 100 µM, the GI50 [24] was over 100 µM and the TGI [24] was over 100 µM. The GI50 [25] was over 100 µM, the TGI [25] was over 100 µM and the GI50 [26] was over 100 µM. It also gave a TGI [26] of over 100 µM, a GI50 [27] of over 62.2 µM and a TGI [27] of over 100 µM. It also gave a GI50 [28] of over 100 µM, a TGI [28] of over 100 µM and a TGI [29] of over 23 µM. The GI50 [30] was over 100 µM, the TGI [30] was over 100 µM and the GI50 [31] was over 100 µM. It also gave a TGI [31] of over 100 µM, a GI50 [32] of over 100 µM and a TGI [32] of over 100 µM. It also gave a GI50 [33] of over 100 µM, a TGI [33] of over 100 µM and a GI50 [34] of 8.51 µM. The TGI [34] was over 22.8 µM, the GI50 [35] was 97 µM and the TGI [35] was over 100 µM. For the same compound, the GI50 [36] was over 100 µM, the TGI [36] was over 100 µM and the GI50 [37] was over 100 µM. It also gave a TGI [37] of over 100 µM, a GI50 [38] of over 100 µM and a TGI [38] of over 100 µM. The GI50 [39] was 3.36 µM, the TGI [39] was 11.3 µM and the GI50 [40] was over 100 µM. It also gave a TGI [40] of over 100 µM, a GI50 [41] of over 100 µM and a TGI [41] of over 100 µM. The GI50 [42] was over 100 µM, the TGI [42] was over 100 µM and the GI50 [43] was over 100 µM. For the same compound, the TGI [43] was over 100 µM, the GI50 [44] was over 100 µM and the TGI [44] was over 100 µM. It also gave a GI50 [45] of over 54.5 µM, a TGI [45] of 98.1 µM and a GI50 [46] of over 100 µM. It also gave a TGI [46] of over 100 µM, a GI50 [47] of over 78.5 µM and a TGI [47] of over 100 µM. For the same compound, the GI50 [48] was over 100 µM, the TGI [48] was over 100 µM and the GI50 [49] was over 100 µM. For the same compound, the TGI [49] was over 100 µM, the GI50 [50] was over 100 µM and the TGI [50] was over 100 µM. For the same compound, the GI50 [51] was over 100 µM, the TGI [51] was over 100 µM and the GI50 [52] was over 100000 nM. The TGI [52] was over 100 µM, the GI50 [53] was over 100 µM and the TGI [53] was over 100 µM. The GI50 [54] was 91.5 µM, the TGI [54] was over 100 µM and the GI50 [55] was over 100 µM. The TGI [55] was over 100 µM, the GI50 [56] was over 100 µM and the TGI [56] was over 100 µM. For the same compound, the GI50 [57] was over 100 µM, the TGI [57] was over 100 µM and the GI50 [58] was over 100 µM. It also gave a TGI [58] of over 100 µM.
